# According to ChEMBL document CHEMBL2150966, “Discovery of a novel series of potent and orally bioavailable phosphoinositide 3-kinase γ inhibitors” (J Med Chem, 2012):
# How the values were obtained:
# [1] = Apparent permeability across apical to basolateral side of MDCK cells; format: ADME, cell-based, Canis lupus familiaris; settings: dog
# [2] = Plasma concentration in C57BL6 mouse at 100 mg/kg, po after 1 hr; format: ADME, organism-based; parameters: dose 100 mg/kg, route oral
# [3] = Plasma concentration in C57BL6 mouse at 100 mg/kg, po after 4 hr; format: ADME, organism-based; parameters: dose 100 mg/kg, route oral
# in vivo = settings: BALB/c, mouse, plasma, po, 100 mg/kg
# [4] = Oral bioavailability Sprague-Dawley rat at 5 mg/kg; format: ADME, organism-based; settings: in vivo
# [5] = Cmax in Sprague-Dawley rat at 5 mg/kg, po; format: ADME, organism-based; parameters: dose 5 mg/kg, route oral; settings: in vivo
# [6] = AUC (0 to infinity) in Sprague-Dawley rat at 5 mg/kg, po; format: ADME, organism-based; parameters: time infinity, dose 5 mg/kg, route oral; settings: plasma
# [7] = Kinetic solubility of compound in PBS at pH 7.4; format: physicochemical; settings: read-out: Kinetic_solubility
# [8] = Half life in Sprague-Dawley rat at 5 mg/kg, po; format: ADME, organism-based; parameters: dose 5 mg/kg, route oral; settings: in vivo
# [9] = Lipophilicity of compound, Log D; format: physicochemical; settings: octanol/water
# [10] = Drug metabolism in mouse liver microsome assessed as compound oxidation after 30 mins; format: ADME; settings: liver microsomes, read-out: Drug metabolism
SMILES,Papp A→B [1] [×10⁻⁶ cm/s],concentration at 1 h [2] [µM],concentration at 4 h [3] [µM],further results
CNC(=O)c1nc(-c2ccc(Cl)c(S(=O)(=O)Nc3cccc(F)c3Cl)c2)cnc1N,10,237,39.8,–
CNC(=O)c1nc(-c2cccc(NS(=O)(=O)c3cccc(Cl)c3)c2)cnc1N,10,–,–,–
CNC(=O)c1nc(-c2ccc(Cl)c(S(=O)(=O)Nc3ccc(F)cc3Cl)c2)cnc1N,10,64.8,19.2,concentration at 4 h (in vivo): 20.3 µM
CNC(=O)c1nc(-c2ccc(Cl)c(S(=O)(=O)Nc3cccc(F)c3F)c2)cnc1N,55,333,119,bioavailability [4]: 76.7%; concentration at 4 h (in vivo): 43.1 µM; Cmax [5]: 42.5 µM; AUC(0-inf) [6]: 449 µM·h; solubility kinetic [7]: 176 µM; half-life [8]: 4.44 h
CC(C)c1ccc(-c2ncccc2N2CCN(S(=O)(=O)c3cccc(-c4cnc(N)nc4)c3)CC2)cc1,–,12.9,3.2,logD [9]: > 4; bioavailability [4]: 12.7%; AUC(0-inf) [6]: 0.9 µM·h; solubility kinetic [7]: < 5 µM; metabolised at 0.5 h [10]: 37%; half-life [8]: 1.82 h
CNC(=O)c1nc(-c2ccc(Cl)c(S(=O)(=O)Nc3ccccc3)c2)cnc1N,10,–,–,–
CNC(=O)c1nc(-c2cnc(N)c(S(=O)(=O)Nc3ccccc3)c2)cnc1N,10,–,–,–
CNC(=O)c1nc(-c2cccc(S(=O)(=O)Nc3cccc(F)c3F)c2)cnc1N,10,–,–,–
CNC(=O)c1nc(-c2ccc(Cl)c(S(N)(=O)=O)c2)cnc1N,10,–,–,–
CNC(=O)c1nc(-c2cccc(S(=O)(=O)Nc3ccccc3)c2)cnc1N,10,–,–,–
CNC(=O)c1nc(-c2ccc(Cl)c(S(=O)(=O)Nc3cccc(C)c3)c2)cnc1N,10,–,–,–
CC(C)c1ccc(-c2nccnc2N2CCN(S(=O)(=O)c3cccc(-c4cnc(N)nc4)c3)CC2)cc1,–,0.7,0.1,metabolised at 0.5 h [10]: 79%
CNC(=O)c1nc(-c2ccc(Cl)c(S(=O)(=O)Nc3ccccc3Cl)c2)cnc1N,10,59.1,9.6,solubility kinetic [7]: 24 µM
CNC(=O)c1nc(-c2cccc(NS(=O)(=O)c3ccccc3)c2)cnc1N,10,–,–,–
COc1nc(N)ncc1-c1ccc(Cl)c(S(=O)(=O)Nc2cccc(F)c2F)c1,10,–,–,–
CNC(=O)c1nc(-c2ccc(Cl)c(S(=O)(=O)Nc3cccc(F)c3)c2)cnc1N,10,1.6,1,–
CNC(=O)c1nc(-c2ccc(Cl)c(S(=O)(=O)Nc3ccc(Cl)cc3Cl)c2)cnc1N,10,21.3,8.6,concentration at 4 h (in vivo): 6.5 µM
CNC(=O)c1nc(-c2ccc(Cl)c(S(=O)(=O)NCC(F)(F)F)c2)cnc1N,10,–,–,solubility kinetic [7]: 211 µM

SMILES,Papp A→B [1] [×10⁻⁶ cm/s],concentration at 1 h [2] [µM],concentration at 4 h [3] [µM],further results
Nc1cnc(-c2ccc(Cl)c(S(=O)(=O)Nc3cccc(F)c3F)c2)cn1,10,–,–,–
CNC(=O)c1nc(-c2cccc(S(=O)(=O)Nc3cccc(Cl)c3)c2)cnc1N,10,0.6,0.4,–
Nc1ncc(-c2ccc(Cl)c(S(=O)(=O)Nc3cccc(F)c3F)c2)cn1,10,–,–,–
CNC(=O)c1nc(-c2ccc(Cl)c(S(=O)(=O)Nc3cccc(C(F)(F)F)c3)c2)cnc1N,10,1.7,0.4,–
CNC(=O)c1nc(-c2ccc(Cl)c(S(=O)(=O)Nc3cccc(F)c3C)c2)cnc1N,10,13.1,6.2,bioavailability [4]: 66.2%; concentration at 4 h (in vivo): 9.2 µM; Cmax [5]: 9.1 µM; AUC(0-inf) [6]: 26.8 µM·h; half-life [8]: 2.08 h
CNC(=O)c1nc(-c2cccc(-c3nnn[nH]3)c2)cnc1N,–,–,–,logD [9]: 0.47; solubility kinetic [7]: 424 µM
CNC(=O)c1nc(-c2ccc(Cl)c(S(=O)(=O)NC)c2)cnc1N,10,–,–,–
CS(=O)(=O)N1CCN(Cc2cc3nc(-c4cccc5[nH]ncc45)nc(N4CCOCC4)c3s2)CC1 [PICTILISIB],–,–,–,concentration at 4 h (in vivo): 5.3 µM
CNC(=O)c1nc(-c2ccc(Cl)c(S(=O)(=O)Nc3cccc(Cl)c3Cl)c2)cnc1N,10,173,22.1,–
CNC(=O)c1nc(-c2ccc(Cl)c(NS(=O)(=O)c3cccc(Cl)c3)c2)cnc1N,10,–,–,–
CNC(=O)c1nc(-c2ccc(Cl)c(S(=O)(=O)Nc3cccc(Cl)c3)c2)cnc1N,10,1.3,0.1,solubility kinetic [7]: < 1 µM
Nc1ncc(-c2ccc(Cl)c(S(=O)(=O)Nc3cccc(F)c3F)c2)c(OCC(F)(F)F)n1,10,–,–,–
CNC(=O)c1nc(-c2ccc(Cl)c(S(=O)(=O)Nc3cccc(OC)c3)c2)cnc1N,10,0.7,0.09,–
CNC(=O)c1nc(-c2ccc(F)c(S(=O)(=O)Nc3ccccc3)c2)cnc1N,10,–,–,–
CNC(=O)c1nc(-c2ccc(OC)c(S(=O)(=O)Nc3ccccc3)c2)cnc1N,10,–,–,–
COc1ccc(-c2cccc(S(=O)(=O)N3CCN(c4nccnc4-c4ccc(OC)cc4)CC3)c2)cc1,–,0.5,0.1,–
CNC(=O)c1nc(-c2ccc(Cl)c(S(=O)(=O)Nc3ccc(Cl)cc3)c2)cnc1N,10,–,–,–
